Assays:
U-251 cell line = assay: Fluorescence analysis of effect on the cell membrane; format: cell-based, human; conditions: high and low concentration (10 and 100 μM)
Experimental: To determine the Andranone action mechanism on neoplastic cells, a fluorescence analysis was performed on cells of the U-251 cell line treated with 10 and 100 μM of cis-platinum and 0.1 and 0.2 μM of Andranone.

PC-3 (prostate) = assay: Sulforhodamine B growth inhibition, PC-3 (prostate); format: cell-based, human; conditions: for inhibition at 100 µM: Homo sapiens, read-out: Growth inhibition by cell line (%) PC-3
Experimental: (§1) For the evaluation of the cytotoxic effect of Andranone on neoplastic cells, 6 cell lines were used:
(§2) HCT-15 (colon), MCF-7 (breast), K-562 (leukemia), U-251 (central nervous system), PC-3 (prostate), SKUL (lung) and COST-7 (cervical uterus) from the National Cancer Institute (NCI) of the United States. The cytotoxicity of Andranone was determined in sixfold microcultures using preferable Andranone concentrations between 0.1 and 1.0 μM, more specifically between 0.1 and 0.6 μM and mostly between 0.1 and 0.3 μM. Cell viability and growth were measured indirectly by the sulforhodamine B method according to procedures validated by the NCI, using salicylic acid and Mezalasin as negative control compounds, and Cis-platinum as a control antineoplastic drug at concentrations of 100 μM.

[1] = test system: U-251 (central nervous system); assay: Sulforhodamine B growth inhibition, U-251 (central nervous system); format: cell-based, human; conditions: for inhibition at 100 µM: Homo sapiens, U-251, read-out: Growth inhibition by cell line (%) U-251
Experimental: as §1, §2

SKUL (lung) = assay: Sulforhodamine B growth inhibition, SKUL (lung); format: cell-based, human; conditions: for inhibition at 100 µM: Homo sapiens, read-out: Growth inhibition by cell line (%) SKUL
Experimental: as §1, §2

K-562 (leukemia) = assay: Sulforhodamine B growth inhibition, K-562 (leukemia); format: cell-based, human; conditions: for inhibition at 100 µM: Homo sapiens, K562, read-out: Growth inhibition by cell line (%) K-562
Experimental: as §1, §2

MCF-7 (breast) = assay: Sulforhodamine B growth inhibition, MCF-7 (breast); format: cell-based, human; conditions: for inhibition at 100 µM: Homo sapiens, MCF7, read-out: Growth inhibition by cell line (%) MCF-7
Experimental: as §1, §2

HCT-15 (colon) = assay: Sulforhodamine B growth inhibition, HCT-15 (colon); format: cell-based, human; conditions: for inhibition at 100 µM: Homo sapiens, HCT-15, read-out: Growth inhibition by cell line (%) HTC-15
Experimental: as §1, §2

COST-7 (cervical uterus) = assay: Sulforhodamine B growth inhibition, COST-7 (cervical uterus); format: cell-based, human; conditions: for inhibition at 100 µM: Homo sapiens, read-out: Growth inhibition by cell line (%) COST-7
Experimental: as §1, §2

SK-N-SH (Neuroblastoma) = assay: In vitro cytotoxic activity IC50, SK-N-SH; format: cell-based, human
Text: (§3) Additionally, the cytotoxic activity was weighted by the IC50 of Andranone on 12 cell lines of neuronal origin, PFSK-1 (brain, cerebral hemisphere); A-172 (Glioblastoma, patient); SW1088 (Brain Fibroblast); Daoy (Brain, Cerebellum); 1321N1 (Normal brain cells) HT-29 (Colorectal Carcinoma); SW-620 (Colorectal carcinoma); H-358 (Lung carcinoma); A-549 (Lung carcinoma); LA-N-5 (Neuroblastoma); SK—N-SH (Neuroblastoma); and L-929 (Mouse fibrosarcoma) using Bevacizumab as a control. The IC50 determination of Andranone was carried out in microcultures in sixfold.

A-172 (Glioblastoma) = assay: In vitro cytotoxic activity IC50, A-172; format: cell-based, human
Text: as §3

[2] = test system: SW-620 (Colorectal carcinoma); assay: In vitro cytotoxic activity IC50, SW-620; format: cell-based, human
Text: as §3

Daoy (Brain, Cerebellum) = assay: In vitro cytotoxic activity IC50, Daoy; format: cell-based, human
Text: as §3

[3] = test system: SW1088 (Brain Fibroblast); assay: In vitro cytotoxic activity IC50, SW1088; format: cell-based, human
Text: as §3

H-358 (Lung carcinoma) = assay: In vitro cytotoxic activity IC50, H-358; format: cell-based, human
Text: as §3

[4] = test system: 1321N1 (Normal brain cells); assay: In vitro cytotoxic activity IC50, 1321N1; format: cell-based, human
Text: as §3

A-549 (Lung carcinoma) = assay: In vitro cytotoxic activity IC50, A-549; format: cell-based, human
Text: as §3

[5] = test system: HT-29 (Colorectal Carcinoma); assay: In vitro cytotoxic activity IC50, HT-29; format: cell-based, human
Text: as §3

[6] = test system: L-929 (Mouse fibrosarcoma); assay: In vitro cytotoxic activity IC50, L-929; format: cell-based
Text: as §3

LA-N-5 (Neuroblastoma) = assay: In vitro cytotoxic activity IC50, LA-N-5; format: cell-based, human
Text: as §3

[7] = test system: PFSK-1 (brain, cerebral hemisphere); assay: In vitro cytotoxic activity IC50, PFSK-1; format: cell-based, human
Text: as §3

[8] = test system: human peripheral blood lymphocytes; assay: Micronucleus test in human peripheral blood lymphocytes; format: cell-based
Experimental: […] At 44 h, cytochalasin B (4.5 μg/mL) was added to all cultures and at 72 h the lymphocytes were harvested by centrifugation at 1500 rpm for 10 min. The cell bud was divided into 2 parts, one to perform the micronucleus test and the other was kept in PBS (pH 7.5) at −80° C. to perform the RT-qPCR tests.
For the micronucleus test, the first part of the cell bud was prefixed with 1 mL of Carnoy's fixative (3:1) and centrifuged at 1500 rpm for 10 min. The supernatant was removed, and the cell bud was resuspended. 5 mL of Carnoy fixative was added and centrifuged again at 1500 rpm for 10 min. This step was repeated 2 more times. Lamellae were made on slides using the drip technique and allowed to air dry. The samples were stained in 5% Giemsa dye and analyzed in the optical microscope at 40× to determine the frequency of micronuclei in 1000 cells (in duplicate).

## N.N.[Cl][Pt][Cl] [Cisplatin]
U-251 cell line
  fluorescence analysis, cell membrane / cell death: cell membrane alteration without being so obvious
PC-3 (prostate); 100 μM
  Growth inhibition by cell line (%) PC-3: 32.42%
[1]; 100 μM
  Growth inhibition by cell line (%) U-251: 65.9%
SKUL (lung); 100 μM
  Growth inhibition by cell line (%) SKUL: 81.35%
K-562 (leukemia); 100 μM
  Growth inhibition by cell line (%) K-562: 79.15%
MCF-7 (breast); 100 μM
  Growth inhibition by cell line (%) MCF-7: 42.65%
HCT-15 (colon); 100 μM
  Growth inhibition by cell line (%) HTC-15: 87.49%
COST-7 (cervical uterus); 100 μM
  Growth inhibition by cell line (%) COST-7: 43.39%

## Nc1ccc(O)c(C(=O)O)c1 [Mesalazine]
PC-3 (prostate)
  inhibition at 100 µM: 3.1%
[1]
  inhibition at 100 µM: 6.3%
SKUL (lung)
  inhibition at 100 µM: < 3.1%
K-562 (leukemia)
  inhibition at 100 µM: 8.1%
MCF-7 (breast)
  inhibition at 100 µM: 11.9%
HCT-15 (colon)
  inhibition at 100 µM: < 3.1%
COST-7 (cervical uterus)
  inhibition at 100 µM: < 3.1%

## O=C(O)c1ccccc1O [Salicylic acid]
PC-3 (prostate)
  inhibition at 100 µM: 6.9%
[1]
  inhibition at 100 µM: 6.8%
SKUL (lung)
  inhibition at 100 µM: 10.1%
K-562 (leukemia)
  inhibition at 100 µM: 6.6%
MCF-7 (breast)
  inhibition at 100 µM: 4.9%
HCT-15 (colon)
  inhibition at 100 µM: < 3.1%
COST-7 (cervical uterus)
  inhibition at 100 µM: 11.2%

## Bevacizumab: Bevacizumab used as a control in the IC50 determination
SK-N-SH (Neuroblastoma)
  IC50: 88.4 µM
A-172 (Glioblastoma)
  IC50: 41.4 µM
[2]
  IC50: 27.2 µM
Daoy (Brain, Cerebellum)
  IC50: 29.4 µM
[3]
  IC50: 47.3 µM
H-358 (Lung carcinoma)
  IC50: 115 µM
[4]
  IC50: 39.5 µM
A-549 (Lung carcinoma)
  IC50: 105 µM
[5]
  IC50: 38.4 µM
[6]
  IC50: 126 µM
LA-N-5 (Neuroblastoma)
  IC50: 79.3 µM
[7]
  IC50: 31.2 µM

## Bleomycin
[8]; Bleomycin 3.2 μg/mL
  IDN: 1.60 ± 0.06
[8]; Bleomycin 3.2 mg/mL
  IPBC: 1.56 ± 0.05
  Relative cytotoxicity (%): 34.50%
[8]; positive control, 3.2 μg/mL, 72 h
  frequency of MN: significantly increased

Source: patent publication US20250195472A1, “Indole Alkaloid as Antineoplastic Agent” (NAPP TECNOLOGIAS, S.A. DE C.V., priority 2021, published 2025)
